Reference: patent US6785989B2, “Methods and apparatus for removal of wrinkles from fabrics” (The Procter & Gamble Company, priority 2000, dated 2004)

Assay: Perfume component interaction with cyclodextrin (CD interaction)
Format: physicochemical
Conditions: perfume component complexing with cyclodextrin
Text: The following table illustrates the molecular weight property of some of the preferred perfume versus non-preferred perfume components.

Row | Molecule | CD interaction
1 | CC(C=O)Cc1ccc(C(C)C)cc1 (centres unmarked) [Cymal] | strong
2 | CCOC(=O)c1ccccc1C(=O)OCC [Diethyl Phthalate] | weak
3 | CC(=O)OC1CC2CC1C1CC=CC21 (centres unmarked) [Flor Acetate] | strong
4 | CCC(=O)OC1CC2CC1C1CC=CC21 (centres unmarked) [Frutene] | strong
5 | CC1COCc2cc3c(cc21)C(C)(C)C(C)C3(C)C (centres unmarked) [Galaxolide] | weak
6 | CCCCCCOC(=O)c1ccccc1O [Hexyl Salicylate] | weak
7 | CCCCCCC(C=O)=Cc1ccccc1 [Hexyl cinnamic Aldehyde] | weak
8 | CC(=O)C1(C)CC2=C(CCCC2(C)C)CC1C (centres unmarked) [Iso-E Super] | weak
9 | CCCCCCCCCCCCCC(=O)OC(C)C [Iso-propyl Myristate] | weak
10 | CC(=O)C(C)=C(C)C(C)C(C)(C)C (centres unmarked) [Koavone] | strong
11 | CC(C=O)Cc1ccc(C(C)(C)C)cc1 (centres unmarked) [Lilial, p-t-bucinal] | strong
12 | CC(C)(O)CCCC1=CCC(C=O)CC1 (centres unmarked) [Lyral] | weak
13 | CCCCCC1C(=O)CCC1CC(=O)OC (centres unmarked) [Methyl Dihydro Jasmonate] | weak
14 | O=C(Cc1ccccc1)OCCc1ccccc1 [Phenyl-Ethyl-Phenyl Acetate] | weak
15 | CC(=O)OC(C)(C)C1CC=C(C)CC1 (centres unmarked) [Terpinyl Acetate] | significant
16 | CCC(C)(O)CCCC(C)C (centres unmarked) [Tetrahydrolinalol] | significant
17 | CC(=O)OC1CCC(C(C)(C)C)CC1 (centres unmarked) [Vertenex, para-tert-butylcyclohexyl acetate] | strong
18 | CC(=O)/C=C/C1C(C)=CCCC1(C)C (centres unmarked) [a-ionone] | strong
19 | a-Me Ionone | strong

Assay: not given
Conditions: cited from earlier work

Row | Molecule | solubility in water
20 | OCCOc1ccccc1 [2-phenoxyethanol] | about 2.67%
21 | OCCc1ccccc1 [2-phenylethanol] | about 2%
22 | O=[N+]([O-])C1(Br)COCOC1 [Bronidox L, 5-bromo-5-nitro-1,3-dioxane] | about 0.46%
23 | CC1(C)C(=O)N(CO)C(=O)N1CO [DMDM hydantoin, 1,3-bis(hydroxymethyl)-5,5-dimethyl-2,4-imidazolidinedione] | more than 50%
24 | ClC=CC[N+]12CN3CN(CN(C3)C1)C2.[Cl-] [Dowicil 200, 1-(3-Chlorallyl)-3,5,7-triaza-1-azoniaadamantane chloride] | freely soluble
25 | OCc1ccccc1 [benzyl alcohol] | about 4%
26 | [H]/N=C(\N/C(=N/[H])NCCCCCCNC(=N)NC(=N)Nc1ccc(Cl)cc1)Nc1ccc(Cl)cc1 [chlorhexidine diacetate, 1,1′-hexamethylene bis(5-(p-chlorophenyl)biguanide), reference compound] | about 1.8%
27 | [H]/N=C(\N/C(=N/[H])NCCCCCCNC(=N)NC(=N)Nc1ccc(Cl)cc1)Nc1ccc(Cl)cc1 [chlorhexidine digluconate, 1,1′-hexamethylene bis(5-(p-chlorophenyl)biguanide), reference compound] | about 70%
28 | CC(C)(O)C(Cl)(Cl)Cl [chlorobutanol, 1,1,1-Trichloro-2-methylpropan-2-ol] | about 0.8%
29 | [Na+].[O-][n+]1ccccc1[S-] [sodium pyrithione] | about 50%
